Results as given in patent US20170027896A1, “METHODS AND COMPOSITIONS FOR THE TREATMENT OF VASCULAR MALFORMATION” (IFOM - FONDAZIONE ISTITUTO FIRC DI ONCOLOGIA MOLECOLARE, priority 2014, published 2017).
“Also recorded” adds a separate entry of the source.

Tests used:
CCM3-ECKO mice = test: Bleeding and mortality in drug-treated CCM3-ECKO mice; conditions: 30 mg/kg body weight intragastrically, daily
Protocol: Sulindac sulfide (Sigma) and sulindac sulfone (Sigma) were both dissolved in DMSO and further diluted 1:50 in corn oil. They were administered intragastrically, daily (30 mg/kg body weight), starting one day after the induction of recombination. The control mice were treated in parallel with vehicle only (corn oil plus 2% DMSO).

[1] = tested on: b-catenin/Tcf4-dependent transcription; test: Top/Fop-Flash assay in CCM3-knockout endothelial line; type: cell-based, mouse; conditions: 48 h
Protocol: Drugs were added to confluent cells for 48 h before the indicated assays. The final concentrations used were: […] (all from Sigma-Aldrich). As all of these were dissolved in DMSO, control treatment (vehicle) was 0.1% DMSO final concentration, as for drug treatment. […] This was transfected into the endothelial cells […] using Lipofectamine 2000, according to the manufacturer instructions (Invitrogen). The pCMV plasmid for constitutive expression of b-gal was co-transfected ([…]), for normalization of luciferase expression over transfection efficiency. […] This was co-transfected with the b-gal plasmid, for normalization, as above. The Dual-Light Reporter Gene assay system (Applied Biosystems) for the combined detection of firefly luciferase and b-gal was used. The cell extraction and detection of chemiluminescence (Glomax 96 microplate luminometer; Promega) was carried out according to the manufacture instructions.

[2] = tested on: vascular malformations in the retina of CCM3-ECKO mice; test: Retina vascular lesions and vein diameter in CCM3-ECKO mice; type: in vivo, mouse
Source text: (§1) The CCM3-flox/flox mice were generated at TaconicArtemis (Koeln, Germany). Two P-lox sequences were inserted that flank exons 4 and 5 of the murine CCM3 gene, to produce a loss-of-function mutation after excision by Ore recombinase. These CCM3-flox/flox mice were bred with Cdh5(PAC)-CreERT2 mice (Wang et al, 2010) for tamoxifen-inducible endothelial-cell-specific expression of Ore-recombinase and CCM3 gene recombination. The CCM3-flox/flox-Cdh5(PAC)-CreERT2 mice were further bred with BAT-gal mice (Maretto et al, 2003) to monitor the activation of b-catenin transcription signaling, and with Rosa 26-Enhanced […] Fluorescent Protein (EYFP) (Rosa26EYFP) mice (Srinivas et al, 2001) to monitor the expression of Ore-recombinase through the expression of EYFP. Tamoxifen (Sigma) was dissolved in corn oil and 10% ethanol (at 10 mg/ml), and then diluted 1:5 in corn oil before single intragastric administration to dpn 1-2 pups (35 mg/kg body weight), as described in^14. The control (wild-type) mice included CCM3-flox/flox-Cdh5(PAC)-CreERT2-BAT-gal mice treated with the vehicle used to dissolve the tamoxifen (corn oil plus 2% ethanol), and CCM3^+/+-Cdh5(PAC)-CreERT2-BAT-gal mice treated with tamoxifen.
Brains and eyes from mice pups were fixed in 3% paraformaldehyde immediately after dissection, and this fixing was continued overnight at 4° C. […]

[3] = tested on: co-immunoprecipitation complex of b-catenin and VE-cadherin; test: Co-immunoprecipitation and Western blotting of b-catenin and VE-cadherin in CCM3-knockout endothelial line; type: cell-based, mouse; conditions: association reduced by 35% in vehicle-KO
Protocol: Drugs were added to confluent cells for 48 h before the indicated assays. The final concentrations used were: […] (all from Sigma-Aldrich). As all of these were dissolved in DMSO, control treatment (vehicle) was 0.1% DMSO final concentration, as for drug treatment. Standard procedures were used to extract and analyze the protein content by Western blotting and immunoprecipitation^46. Nuclear fractionation was as described previously^62.

[4] = tested on: vascular lesions in the brain of CCM3-ECKO mice; test: Assessment of lesion burden in brains of CCM3-ECKO mice; type: in vivo, mouse
Source text: as §1
Brains and eyes from mice pups were fixed in 3% paraformaldehyde immediately after dissection, and this fixing was continued overnight at 4° C. The retinas were dissected from the eyes just before staining as the whole mount. Fixed brains were embedded in 4% low-melting-point agarose and sectioned along the sagittal axis ([…]) using a vibratome (1000 Plus, The Vibratome Company, St. Louis, Mo., US).
For the classification and counting of lesions, entire brains from dpn 9 littermate pups were sectioned and immunostained for Pecam as described above and in the Methods. Sections were then examined under wide-field fluorescence microscopy (10× and 20×). Lesions were classified as described in^63 as mulberry (multiple cavernae, group of more than two contiguous cavernae), single caverna (single dilated vessel with maximal diameter accommodating more than 25 red blood cells), or telangiectases, tortuous small vessels with abnormally dilated lumen). The total numbers of lesions were calculated by summing all of the types of lesions.
As the sections were […], a correction was applied to the number of mulberry lesions, which can span two sections. Therefore, the number of mulberry lesions was divided by […]. The lesions were counted and classified independently by two observers who were blinded to the treatments.
The maximal diameter of the mulberry lesions and single cavernae was used for statistical comparison.

CSc1ccc(/C=C2/C(C)=C(CC(=O)O)c3cc(F)ccc32)cc1 [sulindac sulfide, (Z)-5-Fluoro-2-methyl-1-[4-(methylthio)benzylidene]indene-3-acetic acid]
bleeding from vascular lesions or mortality versus vehicle-treated mice (CCM3-ECKO mice): did not observe either increased bleeding from vascular lesions or mortality | b-catenin transcriptional activity in Top/Fop Flash reporter assay [1]: inhibited; also recorded: reduced | vascular malformations in the retina ([2]; CCM3-ECKO mice, dpn 9): inhibited; also recorded: partially normalized | diameter of the most internal tract of the retinal veins (mean±SD) ([2]; CCM3-ECKO, 30 measurements in 14 retinas, vehicle-ECKO 89.5±7.1 mm): 35 ± 7.8 µm | association between b-catenin and VE-cadherin (b-catenin/VE-cadherin ratio) [3]: restored to the level observed in the wild-type cells | diameters of cerebral vessels / mulberry budding ends (Pecam immunostaining of brain sections) ([4]; CCM3-ECKO pups at dpn9, treated from dpn2): greatly reduces | maximal diameter of single cavernae ([4]; CCM3-ECKO pups dpn 9, 30 mg/kg daily): did not significantly reduce | mean maximal diameter of mulberry lesions (±SD) ([4]; CCM3-ECKO pups dpn 9, 30 mg/kg daily, vehicle 386±56 mm): 244 ± 38 µm | mean number (±SD) of vascular lesions per brain ([4]; CCM3-ECKO pups dpn 9, 30 mg/kg intragastrically daily, controls 166.8±22 (sulfide study), 153.5±28 (sulfone study)): 72.6±9
